Test results reported in patent US20200101014A1, “Stable Theranostic and Therapeutic Nanoemulsions Using Triphilic Semifluorinated Amphiphiles” (Wisconsin Alumni Research Foundation, priority 2017, published 2020).

What was measured:
[1] = system: Zebrafish (Danio rerio); assay: In vivo developmental toxicity study, embryo-larval zebrafish model; set-up: species or system Zebrafish (Danio rerio) of the AB strain
Method: In Vivo Developmental Toxicity Study
Due to the novel nature of the M2F8H18 amphiphile, there is no preceding toxicity data. Though some predictions can be made from previous work in the Mecozzi lab, a thorough study of developmental effects related to M2F8H18 was performed using an embryo-larval zebrafish model. This animal model was selected because zebrafish eggs remain transparent from fertilization until the tissues become dense as a mature adult. Several developmental endpoints can be simultaneously monitored providing valuable developmental toxicity data for new chemicals. Following short-term exposure, survival, and hatching, non-lethal malformations were monitored including curved body axis and pericardia edemas. Mortality rate was also monitored.
Zebrafish (Danio rerio) of the AB strain were obtained from our collaborator, Dr. Michael Taylor at the University of Madison-Wisconsin School of Pharmacy, where the fish were cultured until sexual maturation for crossing. The fish were maintained in a light/dark cycle of 14:10 hat 28.5° C. in egg water (0.03% Instant Ocean, Blacksburg, Va., USA). Zebrafish were fed with live brine shrimps (Artemia nauplii) twice a day. Embryos were obtained from healthy adult fish with a ratio of 1:2 for female to male. Six breeding groups were placed in separate spawning aquariums, equipped with a mesh bottom to prevent the eggs from being cannibalized. Crossing was induced in the morning when the light was turned on. One hour later, eggs free of macroscopically discernable symptoms of infection and disease were collected, rinsed with egg water and transferred into Petri dishes until chemical exposure.
The embryo-larvae toxicity assay was carried out according to previous studies in the Taylor and Mecozzi laboratories. Briefly, 8 fertilized eggs of 2 hpf (hours post-fertilization) stages were placed into each well of a 24-well plate and each filled with 600 μL egg water. Six concentrations (1 mM, 333 μM, 111 μM, 37 μM, 12.3 μM, and 4.1 μM) plus two controls were plated. The plate was covered and incubated at 28.5° C. in a light/dark cycle of 14:10 throughout the 96 hpf exposure period. The observations of zebrafish development were made directly in the well using a stereomicroscope (Nikon SMZ18) every 24 hr. Endpoints including mortality, spontaneous movement, hatching success, pericardial edema, and curved body axis, were selected to monitor the effects of M2F8H18. Embryos and larvae were considered dead when no heartbeat was observed. The number of hatched embryos and a cumulative mortality tally was recorded every 24 hr from 2 hpf. The number of larvae displaying pericardial edemas or curved body axes were also recorded every 24 hr from 2 hpf. […]

[2] = system: A549 non-small cell lung cancer cells; conditions: read-out: Reported IC50 for the A549 cell line; cited from earlier work
[3] = cited from earlier work

O=C(O)C(F)(F)C(F)(F)C(F)(F)C(F)(F)C(F)(F)C(F)(F)C(F)(F)F [PFOA, perfluorooctanoic acid]
Malformations ([1]; 333 μM): curved body axis and mild pericardia edemas | Mortality (fish) ([1]; 333 μM, 96 hpf): 67% | Mortality ([1]; 1 mM, 96 hpf): mortality in all fish | Malformations ([1]; lower PFOA concentrations (111 μM and lower)): No other malformations were noted

CC(=O)O[C@H]1C(=O)[C@@]2(C)[C@H]([C@H](OC(=O)c3ccccc3)[C@]3(O)C[C@H](OC(=O)[C@H](O)[C@@H](NC(=O)c4ccccc4)c4ccccc4)C(C)=C1C3(C)C)[C@]1(OC(C)=O)CO[C@@H]1C[C@@H]2O [Paclitaxel, paclitaxel]
IC50 [2]: 4 nM

FC(F)(F)C(F)(F)C(F)(F)C(F)(F)C(F)(F)C(F)(F)C(F)(F)C(F)(F)Br [perfluorooctyl bromide]
Solubility (in water) [3]: 5 nM
